We go through one substance from patent publication US7374944B2, “Device and bioanalytical method utilizing asymmetric biofunctionalized membrane” (Purdue Research Foundation, priority 2001, dated 2008).

Assay [1] in a line: Impedance measurements of supported bolalipid membranes on Au electrodes. The procedure:
The effect of GA surface density on supported membrane impedance was determined using electrodes that had been coated with supported bolalipids by pretreatment with 2 prior to immersion for 24 hours into sonicated 1-GA vesicles containing varying amounts of GA. The 1-GA vesicle dispersions were prepared by sonicating dry 1-GA films in water (nominal GA:bolalipid molar ratios ranging from 1:500-1:50; 2 mM total lipid concentration). […] This observation is consistent with ^23Na NMR ion flux measurements made previously in our laboratory for gramicidin-containing 1 vesicles.
The effects of gramicidin loading on supported bolalipid membrane electrode impedance was further investigated in a sequential deposition experiment (FIG. 10). Adsorption of 2 onto Au electrodes for 1 hour to give partial surface coverage produced significant increases in impedance. Immersion of these pretreated electrodes into bolalipid vesicle solutions where gramicidin was either absent or present (i.e. 1 and 1-GA vesicles, respectively) produced membrane coated electrodes that had substantially different impedance characteristics in 10^−1-10^2 Hz frequency range. […]

Assay [2] can be described thus: Capacitance and single channel measurements of C20 bolalipid membranes. The settings on record: C20 bolalipid monolayer.

In the case of gramicidin, in assay [1] (1:100 molar ratio GA:1, 24 hours, compared with 2 or 2-1 coatings), the “impedance of 2-treated electrode after immersion in 1-GA membrane solution” value is “observed impedances were lower”. For the same substance, the “effect of GA surface density on supported membrane impedance” value in assay [1] (GA:bolalipid molar ratios 1:500-1:50, 1-10^3 Hz range) is listed as “impedance decreases with increasing GA concentration”. For the same substance, the “ion flux across the membrane” value in assay [2] was “resulted in ion flux across the membrane”.
